Assay results as given in patent US20040214856A1, “Cannabinoid receptor ligands and uses thereof” (Pfizer Inc, priority 2003, published 2004).

Tested on: CB-1 receptor
Assay: CB-1 receptor binding assay ([3H]SR141716A displacement)
Settings: inhibition of [3H]SR141716A binding; rat or human protocol not specified
Experimental: The following assays were designed to detect compounds that inhibit the binding of [^3H] SR141716A (selective radiolabeled CB-1 ligand) and [^3H] 5-(1,1-dimethylheptyl)-2-[5-hydroxy-2-(3-hydroxypropyl)-cyclohexyl]-phenol; radiolabeled CB-1/CB-2 ligand) to their respective receptors.
PelFreeze brains (available from Pel Freeze Biologicals, Rogers, Arkansas) were cut up and placed in tissue preparation buffer (5 mM Tris HCl, pH=7.4 and 2 mM EDTA), polytroned at high speed and kept on ice for 15 minutes. The homogenate was then spun at 1,000×g for 5 minutes at 4° C. The supernatant was recovered and centrifuged at 100,000×G for 1 hour at 4° C. The pellet was then re-suspended in 25 ml of TME ([…], pH=7.4, 5 mM MgCl2, and 1 mM EDTA) per brain used. A protein assay was performed and 200 μl of tissue totaling 20 μg was added to the assay.
The test compounds were diluted in drug buffer (0.5% BSA, 10% DMSO and TME) and then 25 μl were added to a deep well polypropylene plate. [^3H] […] In the morning the filters were counted on a Wallac Betaplate™ counter (available from PerkinElmer Life Sciences™, Boston, Mass.). […]
The test compounds were diluted in drug buffer (0.5% BSA, 10% DMSO and TME) and then 25 μl were added to a deep well polypropylene plate. […] In the morning the filters were counted on a Wallac Betaplate™ counter (available from PerkinElmer Life Sciences™, Boston, Mass.).

| CB-1 binding activities | Compound |
| --- | --- |
| 4 nM | CC(C)N1Cc2nn(-c3ccccc3Cl)c(-c3ccc(C#N)cc3)c2C1=O [Example 1A-2, 2-(2-chloro-phenyl)-5-isopropyl-3-(4-cyano-phenyl)-5,6-dihydro-2H-pyrrolo[3,4-c]pyrazol-4-one] |
| 2 nM | CC(C)N1Cc2nn(-c3ccccc3Cl)c(-c3ccc(Cl)cc3)c2C1=O [Example 1A-3, 2-(2-chloro-phenyl)-5-isopropyl-3-(4-chloro-phenyl)-5,6-dihydro-2H-pyrrolo[3,4-c]pyrazol-4-one] |
